Measured values: patent US8952024B2, “Herbicidal pyrimidone derivatives” (E I du Pont de Nemours and Company, priority 2009, dated 2015)

Columns and labels:
Assay in all cases: Test D pre-/postemergence plant response
Assay type in all cases: in vivo
[1] = test system: barnyardgrass (Echinochloa crus-galli)
Procedure, shortened: (§1)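 Each species was planted in mixed loam and sand, treated either before emergence or at the 1- to 4-leaf stage, then kept under glass for 14 to 21 days. Plant response was scored by eye from 0 to 100 relative to controls; a dash marks no result.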

[2] = test system: johnsongrass (Sorghum halepense)
Procedure, shortened: as §1

[3] = test system: Italian ryegrass (Lolium multiflorum)
Procedure, shortened: as §1

[4] = test system: dallisgrass (Paspalum dilatatum)
Procedure, shortened: as §1

[5] = test system: chickweed (common chickweed, Stellaria media)
Procedure, shortened: as §1

[6] = test system: guineagrass (Panicum maximum)
Procedure, shortened: as §1

[7] = test system: kochia (Kochia scoparia)
Procedure, shortened: as §1

[8] = Postemergence, 31 g ai/ha, scale 0 to 100 (0 no effect, 100 complete control)
[9] = Postemergence, 62 g ai/ha, scale 0 to 100 (0 no effect, 100 complete control)
[10] = Postemergence, 125 g ai/ha, scale 0 to 100 (0 no effect, 100 complete control)
[11] = Postemergence, 16 g ai/ha, scale 0 to 100
[12] = Preemergence, 16 g ai/ha, scale 0 to 100, 0 no effect, 100 complete control
[13] = Preemergence, 31 g ai/ha, scale 0 to 100 (0 no effect, 100 complete control)
[14] = Preemergence, 62 g ai/ha, scale 0 to 100
[15] = Preemergence, 125 g ai/ha, scale 0 to 100
[16] = Postemergence, 31 g ai/ha, scale 0 to 100

O=C1CCCC(O)=C1C(=O)c1cnc(-c2ccccc2)n(CC2CCCO2)c1=O (stereo not drawn) [Compound 59]
Plant response rating, Barnyardgrass [1, 8]: 60 | Plant response rating, Barnyardgrass [1, 9]: 60 | Plant response rating, Barnyardgrass [1, 10]: 75 | Plant response rating, Barnyardgrass [1, 11]: 40 | Plant response rating, Barnyardgrass [1, 12]: 0 | Plant response rating, Barnyardgrass [1, 13]: 0 | Plant response rating, Barnyardgrass [1, 14]: 0 | Plant response rating, Barnyardgrass [1, 15]: 10 | Plant response rating, Johnsongrass [2, 16]: 35 | Plant response rating, Johnsongrass [2, 9]: 40 | Plant response rating, Johnsongrass [2, 10]: 60 | Plant response rating, Johnsongrass [2, 11]: 30 | Plant response rating, Johnsongrass [2, 12]: 0 | Plant response rating, Johnsongrass [2, 13]: 0 | Plant response rating, Johnsongrass [2, 14]: 10 | Plant response rating, Johnsongrass [2, 15]: 35 | Plant response rating, Ryegrass, Italian [3, 16]: 0 | Plant response rating, Ryegrass, Italian [3, 9]: 5 | Plant response rating, Ryegrass, Italian [3, 10]: 5 | Plant response rating, Ryegrass, Italian [3, 11]: 0 | Plant response rating, Ryegrass, Italian [3, 12]: 0 | Plant response rating, Ryegrass, Italian [3, 13]: 0 | Plant response rating, Ryegrass, Italian [3, 15]: 20 | Plant response rating, Dallisgrass [4, 16]: 10 | Plant response rating, Dallisgrass [4, 9]: 20 | Plant response rating, Dallisgrass [4, 10]: 50 | Plant response rating, Dallisgrass [4, 11]: 10 | Plant response rating, Dallisgrass [4, 12]: 0 | Plant response rating, Dallisgrass [4, 13]: 0 | Plant response rating, Dallisgrass [4, 14]: 65 | Plant response rating, Dallisgrass [4, 15]: 75 | Plant response rating, Chickweed [5, 16]: 70 | Plant response rating, Chickweed [5, 9]: 70 | Plant response rating, Guineagrass [6, 16]: 10 | Plant response rating, Guineagrass [6, 9]: 20 | Plant response rating, Guineagrass [6, 10]: 20 | Plant response rating, Guineagrass [6, 11]: 10 | Plant response rating, Guineagrass [6, 12]: 0 | Plant response rating, Guineagrass [6, 13]: 0 | Plant response rating, Guineagrass [6, 14]: 0 | Plant response rating, Guineagrass [6, 15]: 0 | Plant response rating, Kochia [7, 16]: 5 | Plant response rating, Kochia [7, 9]: 20 | Plant response rating, Kochia [7, 10]: 50 | Plant response rating, Kochia [7, 11]: 5 | Plant response rating, Kochia [7, 12]: 0 | Plant response rating, Kochia [7, 13]: 0 | Plant response rating, Kochia [7, 14]: 0 | Plant response rating, Kochia [7, 15]: 0

COCCn1c(-c2ccccc2)ncc(C(=O)C2=C(O)CCCC2=O)c1=O [Compound 85]
Plant response rating, Barnyardgrass [1, 8]: 50 | Plant response rating, Barnyardgrass [1, 9]: 65 | Plant response rating, Barnyardgrass [1, 10]: 70 | Plant response rating, Barnyardgrass [1, 11]: 30 | Plant response rating, Barnyardgrass [1, 12]: 60 | Plant response rating, Barnyardgrass [1, 13]: 75 | Plant response rating, Barnyardgrass [1, 14]: 95 | Plant response rating, Barnyardgrass [1, 15]: 98 | Plant response rating, Johnsongrass [2, 16]: 50 | Plant response rating, Johnsongrass [2, 9]: 80 | Plant response rating, Johnsongrass [2, 10]: 80 | Plant response rating, Johnsongrass [2, 11]: 35 | Plant response rating, Johnsongrass [2, 12]: 50 | Plant response rating, Johnsongrass [2, 13]: 65 | Plant response rating, Johnsongrass [2, 14]: 80 | Plant response rating, Johnsongrass [2, 15]: 95 | Plant response rating, Ryegrass, Italian [3, 16]: 0 | Plant response rating, Ryegrass, Italian [3, 9]: 15 | Plant response rating, Ryegrass, Italian [3, 10]: 20 | Plant response rating, Ryegrass, Italian [3, 11]: 0 | Plant response rating, Ryegrass, Italian [3, 12]: 0 | Plant response rating, Ryegrass, Italian [3, 13]: 0 | Plant response rating, Ryegrass, Italian [3, 15]: 20 | Plant response rating, Dallisgrass [4, 16]: 25 | Plant response rating, Dallisgrass [4, 9]: 65 | Plant response rating, Dallisgrass [4, 10]: 80 | Plant response rating, Dallisgrass [4, 11]: 15 | Plant response rating, Dallisgrass [4, 12]: 50 | Plant response rating, Dallisgrass [4, 13]: 80 | Plant response rating, Dallisgrass [4, 14]: 95 | Plant response rating, Dallisgrass [4, 15]: 98 | Plant response rating, Chickweed [5, 16]: 80 | Plant response rating, Chickweed [5, 9]: 100 | Plant response rating, Chickweed [5, 10]: 100 | Plant response rating, Chickweed [5, 12]: 90 | Plant response rating, Chickweed [5, 13]: 100 | Plant response rating, Chickweed [5, 14]: 100 | Plant response rating, Chickweed [5, 15]: 100 | Plant response rating, Guineagrass [6, 16]: 20 | Plant response rating, Guineagrass [6, 9]: 35 | Plant response rating, Guineagrass [6, 10]: 60 | Plant response rating, Guineagrass [6, 11]: 10 | Plant response rating, Guineagrass [6, 12]: 0 | Plant response rating, Guineagrass [6, 13]: 10 | Plant response rating, Guineagrass [6, 14]: 70 | Plant response rating, Guineagrass [6, 15]: 75 | Plant response rating, Kochia [7, 16]: 10 | Plant response rating, Kochia [7, 9]: 20 | Plant response rating, Kochia [7, 10]: 60 | Plant response rating, Kochia [7, 11]: 0 | Plant response rating, Kochia [7, 12]: 5 | Plant response rating, Kochia [7, 13]: 20 | Plant response rating, Kochia [7, 14]: 75 | Plant response rating, Kochia [7, 15]: 95

COCCn1c(-c2ccsc2)ncc(C(=O)C2=C(O)C3CCC(C3)C2=O)c1=O (stereo not drawn) [Compound 228]
Plant response rating, Barnyardgrass [1, 8]: 20 | Plant response rating, Barnyardgrass [1, 10]: 80 | Plant response rating, Johnsongrass [2, 10]: 70 | Plant response rating, Ryegrass, Italian [3, 10]: 5 | Plant response rating, Dallisgrass [4, 10]: 5 | Plant response rating, Chickweed [5, 10]: 75 | Plant response rating, Guineagrass [6, 10]: 15 | Plant response rating, Kochia [7, 10]: 75
